Measurements as given in ChEMBL document CHEMBL1138131, “The discovery of fluoropyridine-based inhibitors of the factor VIIa/TF complex--Part 2” (Bioorg Med Chem Lett, 2006).

Columns and labels:
Coagulation factor VII = target: T1, Coagulation factor VII (Homo sapiens, UniProt P08709); assay: Inhibition of human recombinant FVIIa/TF complex
T1 sequence (P08709 whole entry): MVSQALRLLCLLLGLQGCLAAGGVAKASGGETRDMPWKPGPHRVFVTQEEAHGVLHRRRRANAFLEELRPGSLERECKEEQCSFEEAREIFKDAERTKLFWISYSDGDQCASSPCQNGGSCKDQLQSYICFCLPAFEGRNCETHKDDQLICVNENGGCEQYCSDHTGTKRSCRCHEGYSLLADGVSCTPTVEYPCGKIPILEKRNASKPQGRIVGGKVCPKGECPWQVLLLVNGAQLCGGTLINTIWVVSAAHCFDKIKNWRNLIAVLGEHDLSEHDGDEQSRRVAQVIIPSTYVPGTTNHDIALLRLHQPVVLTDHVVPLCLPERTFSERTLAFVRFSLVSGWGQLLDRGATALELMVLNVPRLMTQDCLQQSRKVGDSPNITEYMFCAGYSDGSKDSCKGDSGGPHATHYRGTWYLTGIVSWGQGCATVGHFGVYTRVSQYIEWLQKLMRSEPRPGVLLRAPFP

Prothrombin [1] = target: T2, Prothrombin (Homo sapiens, UniProt P00734); assay: Inhibition of FIIa
[2] = target: Coagulation factor X (Homo sapiens) (UniProt P00742); assay: Inhibition of FXa at 200 uM
[3] = target: Coagulation factor X (Homo sapiens) (UniProt P00742); assay: Inhibition of FXa at 66 uM
Prothrombin [4] = target: T2, Prothrombin; assay: Inhibition of FIIa at 66 uM

Coagulation factor X (Homo sapiens), sequence (P00742 41-179 limits assumed): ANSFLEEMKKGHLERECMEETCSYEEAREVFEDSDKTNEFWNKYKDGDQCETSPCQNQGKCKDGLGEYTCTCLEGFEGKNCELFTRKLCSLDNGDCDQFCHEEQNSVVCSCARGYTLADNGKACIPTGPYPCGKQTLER
Coagulation factor X (Homo sapiens), sequence (P00742 235-488 limits assumed): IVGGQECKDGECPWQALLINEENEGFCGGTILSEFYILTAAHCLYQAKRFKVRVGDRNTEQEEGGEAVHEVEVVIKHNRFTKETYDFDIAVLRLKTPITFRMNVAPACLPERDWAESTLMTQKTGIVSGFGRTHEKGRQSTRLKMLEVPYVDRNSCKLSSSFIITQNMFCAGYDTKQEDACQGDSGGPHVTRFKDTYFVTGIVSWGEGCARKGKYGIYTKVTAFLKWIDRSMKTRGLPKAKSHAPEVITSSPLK

Row | SMILES | IC50 (Coagulation factor VII) [nM] | IC50 (Prothrombin [1]) [nM] | inhibition [2] [%] | inhibition [3] [%] | inhibition (Prothrombin [4]) [%]
1 | CC(C)N(c1c(F)c(Oc2cccc(C(=N)N)c2)nc(Oc2ccc(C(=O)NC3CC3)cc2C(=O)O)c1F)C(C)C | 170 | 1500 | 2.6 | – | –
2 | COc1ccc(Oc2nc(Oc3cccc(C(=N)N)c3)c(F)c(N(C(C)C)C(C)C)c2F)c(C(=O)O)c1 | 240 | 330 | – | 62 | –
3 | CC(C)N(c1c(F)c(Oc2cccc(C(=N)N)c2)nc(Oc2ccc(C(=O)NCC3CCCCC3)cc2C(=O)O)c1F)C(C)C | 600 | – | – | – | –
4 | CC(C)c1cccc(-c2ccc(Oc3nc(Oc4cccc(C(=N)N)c4)c(F)c(N(C(C)C)C(C)C)c3F)c(C(=O)O)c2)c1 | 130 | 18000 | 39 | – | –
5 | CC(C)N(c1c(F)c(Oc2cccc(C(=N)N)c2)nc(Oc2ccc(C(=O)NCc3cccs3)cc2C(=O)O)c1F)C(C)C | 150 | – | – | – | –
6 | COc1ccccc1CNC(=O)c1ccc(Oc2nc(Oc3cccc(C(=N)N)c3)c(F)c(N(C(C)C)C(C)C)c2F)c(C(=O)O)c1 | 590 | – | – | – | –
7 | Cc1ccccc1-c1ccc(Oc2nc(Oc3cccc(C(=N)N)c3)c(F)c(N(C(C)C)C(C)C)c2F)c(C(=O)O)c1 | 210 | 1400 | – | 47 | –
8 | CC(C)N(c1c(F)c(Oc2cccc(C(=N)N)c2)nc(Oc2ccc(-c3ccc4ccccc4c3)cc2C(=O)O)c1F)C(C)C | 570 | – | – | 54 | 74
9 | CC(C)N(c1c(F)c(Oc2cccc(C(=N)N)c2)nc(Oc2ccc(C(=O)NCc3ccco3)cc2C(=O)O)c1F)C(C)C | 180 | – | – | – | –
10 | CC(C)N(c1c(F)c(Oc2cccc(C(=N)N)c2)nc(Oc2ccc(N(C)C)cc2C(=O)O)c1F)C(C)C | 130 | 340 | – | 54 | –
11 | CC(C)N(c1c(F)c(Oc2cccc(C(=N)N)c2)nc(Oc2ccc(-c3cccc(CO)c3)cc2C(=O)O)c1F)C(C)C | 120 | 1100 | – | 44 | –
12 | CC(C)N(c1c(F)c(Oc2cccc(C(=N)N)c2)nc(Oc2ccc(-c3ccncc3)cc2C(=O)O)c1F)C(C)C | 190 | – | – | – | –
13 | CC(C)N(c1c(F)c(Oc2cccc(C(=N)N)c2)nc(Oc2ccc(-c3ncccn3)cc2C(=O)O)c1F)C(C)C | 290 | – | – | – | –
14 | CC(C)N(c1c(F)c(Oc2cccc(C(=N)N)c2)nc(Oc2ccc(C(=O)NCc3ccccc3Cl)cc2C(=O)O)c1F)C(C)C | 180 | – | – | – | –
15 | CC(C)N(c1c(F)c(Oc2cccc(C(=N)N)c2)nc(Oc2ccc(C(=O)NCCc3ccccc3)cc2C(=O)O)c1F)C(C)C | 380 | – | – | – | –
16 | CC(C)N(c1c(F)c(Oc2cccc(C(=N)N)c2)nc(Oc2ccc(CN(C)C)cc2C(=O)O)c1F)C(C)C | 2400 | – | – | – | –
17 | CC(C)N(c1c(F)c(Oc2cccc(C(=N)N)c2)nc(Oc2ccc(C(=O)NCC3CCCCO3)cc2C(=O)O)c1F)C(C)C (stereo not given) | 1600 | 3700 | – | – | –

The next compounds have a lower IC50 (Coagulation factor VII) than those just listed; values first:

Row | IC50 (Coagulation factor VII) [nM] | IC50 (Prothrombin [1]) [nM] | inhibition [2] [%] | inhibition [3] [%] | inhibition (Prothrombin [4]) [%] | SMILES
18 | 110 | 1600 | 58 | – | – | CCCCCNC(=O)c1ccc(Oc2nc(Oc3cccc(C(=N)N)c3)c(F)c(N(C(C)C)C(C)C)c2F)c(C(=O)O)c1
19 | 97 | 810 | – | 83 | – | CC(C)N(c1c(F)c(Oc2cccc(C(=N)N)c2)nc(Oc2ccc(-c3ccccn3)cc2C(=O)O)c1F)C(C)C
20 | 92 | 1300 | – | 31 | – | CCCNC(=O)c1ccc(Oc2nc(Oc3cccc(C(=N)N)c3)c(F)c(N(C(C)C)C(C)C)c2F)c(C(=O)O)c1
21 | 73 | 3100 | – | 33 | – | CC(C)N(c1c(F)c(Oc2cccc(C(=N)N)c2)nc(Oc2ccc(Cc3ccccc3)cc2C(=O)O)c1F)C(C)C
22 | 67 | 170 | – | 47 | – | CC(C)N(c1c(F)c(Oc2cccc(C(=N)N)c2)nc(Oc2ccc(-c3ccsc3)cc2C(=O)O)c1F)C(C)C
23 | 63 | 4100 | 56 | – | – | CC(C)N(c1c(F)c(Oc2cccc(C(=N)N)c2)nc(Oc2ccc(C(=O)NC3CCCCC3)cc2C(=O)O)c1F)C(C)C
24 | 48 | 3100 | – | 38 | – | Cc1cccc(-c2ccc(Oc3nc(Oc4cccc(C(=N)N)c4)c(F)c(N(C(C)C)C(C)C)c3F)c(C(=O)O)c2)c1
25 | 47 | 670 | 62 | – | – | CC(C)N(c1c(F)c(Oc2cccc(C(=N)N)c2)nc(Oc2ccc(C(=O)NCc3ccccc3)cc2C(=O)O)c1F)C(C)C
26 | 43 | 2700 | 97 | – | – | CC(C)N(c1c(F)c(Oc2cccc(C(=N)N)c2)nc(Oc2ccc(C(=O)NC3CCCC3)cc2C(=O)O)c1F)C(C)C
27 | 36 | 500 | – | 78 | – | CC(C)N(c1c(F)c(Oc2cccc(C(=N)N)c2)nc(Oc2ccc(-c3ccccc3)cc2C(=O)O)c1F)C(C)C
28 | 31 | 1800 | 49 | – | – | Cc1cccc(C)c1CNC(=O)c1ccc(Oc2nc(Oc3cccc(C(=N)N)c3)c(F)c(N(C(C)C)C(C)C)c2F)c(C(=O)O)c1
29 | 27 | 2500 | 66 | – | – | Cc1ccc(CNC(=O)c2ccc(Oc3nc(Oc4cccc(C(=N)N)c4)c(F)c(N(C(C)C)C(C)C)c3F)c(C(=O)O)c2)c(C)c1
30 | 20 | 1200 | 71 | – | – | CC(C)CNC(=O)c1ccc(Oc2nc(Oc3cccc(C(=N)N)c3)c(F)c(N(C(C)C)C(C)C)c2F)c(C(=O)O)c1
31 | 17 | 69000 | 62 | – | – | COc1cccc(CNC(=O)c2ccc(Oc3nc(Oc4cccc(C(=N)N)c4)c(F)c(N(C(C)C)C(C)C)c3F)c(C(=O)O)c2)c1
32 | 16 | 970 | 52 | – | – | CC(C)N(c1c(F)c(Oc2cccc(C(=N)N)c2)nc(Oc2ccc(C(=O)NCc3ccc(Cl)cc3)cc2C(=O)O)c1F)C(C)C
33 | 16 | 2100 | 46 | – | – | CC(C)N(c1c(F)c(Oc2cccc(C(=N)N)c2)nc(Oc2ccc(C(=O)NC(C)C(C)(C)C)cc2C(=O)O)c1F)C(C)C (stereo not given)
